Structures can show the parent of a compound that is named as a salt.
Columns and labels:
[1] = Storage stability, hermetically sealed, −20° C. and 35° C. for 3 months; assay type: physicochemical; settings: stored at −20° C. and 35° C. for 3 months
Text: The crystal of 2ccPA of the present invention is excellent in storage stability.

[2] = Stability test at 35° C. (storage, weekly LC purity analysis); assay type: physicochemical; settings: stored at 35° C.; for purity in stability test, number of days 0: day 0; for purity in stability test, number of days 7: day 7; for purity in stability test, number of days 14: day 14; for purity in stability test, number of days 21: day 21; for purity in stability test, number of days 28: day 28; for purity in stability test, number of days 56: day 56; for stability (assessment in words): results of Table 1
Protocol: As the amorphous of 2ccPA above, 300 mg of 2ccPA (obtained in Example 3) dissolved in 5 mL of water and freeze-dried was used.
In the stability test, about 15 mg each of the 2ccPA crystal of the present invention, the 2ccPA of a formula described in documents, and an amorphous of 2ccPA were weighed, and individually diluted with 5 mL of acetonitrile/water (1/1). Then, 5 μL each of the diluted solutions was analyzed weekly using the LC-2010CHT (Shimazu Corporation).

[3] = listed as 2ccPA crystal obtained by the production method of the present invention, sodium salt

CCCCCCCC/C=C\CCCCCCCC(=O)OCC1COP(=O)([O-])C1.[Na+] (stereo not shown) [2ccPA crystal of the present invention, 4-[(Z)-octadec-9-enoyloxymethyl]-2-oxo-1,2-λ^5-oxaphosphorane-2-olate sodium salt]
storage stability (decrease in purity, decomposition) [1]: little decrease in purity | purity in stability test, number of days 0 ([2]; sodium salt): 99.561% | purity in stability test, number of days 7 ([2]; sodium salt): 99.605% | purity in stability test, number of days 14 ([2]; sodium salt): 99.576% | purity in stability test, number of days 21 ([2]; sodium salt): 99.631% | purity in stability test, number of days 28 ([2]; sodium salt): 99.626% | purity in stability test, number of days 42 ([2]; day 42): 99.593% | purity in stability test, number of days 56 [2, 3]: 99.493% | purity in stability test, number of days 56 ([2]; sodium salt): 99.493% | stability (assessment in words) [2, 3]: excellent stability

CCCCCCCC/C=C\CCCCCCCC(=O)OCC1COP(=O)([O-])C1.[Na+] (stereo not shown) [Amorphous of 2ccPA, sodium salt of 9-octadecenoic acid (9Z)-(2-hydroxy-2-oxo-2λ^5-1,2-oxaphosphoran-4-yl)methyl ester]
purity in stability test, number of days 0 [2]: 99.599% | purity in stability test, number of days 7 [2]: 83.363% | purity in stability test, number of days 14 [2]: 45.02% | purity in stability test, number of days 21 [2]: 34.738% | purity in stability test, number of days 28 [2]: 27.077% | stability (assessment in words) [2]: unsatisfactory

CCCCCCCC/C=C\CCCCCCCC(=O)OCC1COP(=O)(O)C1 (stereo not shown) [A formula described in documents, sodium salt of 9-octadecenoic acid (9Z)-(2-hydroxy-2-oxo-2λ^5-1,2-oxaphosphoran-4-yl)methyl ester]
purity in stability test, number of days 0 [2]: 67.934% | purity in stability test, number of days 7 [2]: 66.665% | purity in stability test, number of days 14 [2]: 67.517% | purity in stability test, number of days 21 [2]: 62.77% | purity in stability test, number of days 28 [2]: 59.841% | stability (assessment in words) [2]: unstable

— patent US10941169B2, “Crystal of cyclic phosphonic acid sodium salt and method for manufacturing same” (OTSUKA CHEMICAL CO., LTD., priority 2014, dated 2021)
